The structures appear in SMILES notation. Counter-ions that a name gives are not always drawn.

T1 sequence (O15399 28-1336, other chains not shown): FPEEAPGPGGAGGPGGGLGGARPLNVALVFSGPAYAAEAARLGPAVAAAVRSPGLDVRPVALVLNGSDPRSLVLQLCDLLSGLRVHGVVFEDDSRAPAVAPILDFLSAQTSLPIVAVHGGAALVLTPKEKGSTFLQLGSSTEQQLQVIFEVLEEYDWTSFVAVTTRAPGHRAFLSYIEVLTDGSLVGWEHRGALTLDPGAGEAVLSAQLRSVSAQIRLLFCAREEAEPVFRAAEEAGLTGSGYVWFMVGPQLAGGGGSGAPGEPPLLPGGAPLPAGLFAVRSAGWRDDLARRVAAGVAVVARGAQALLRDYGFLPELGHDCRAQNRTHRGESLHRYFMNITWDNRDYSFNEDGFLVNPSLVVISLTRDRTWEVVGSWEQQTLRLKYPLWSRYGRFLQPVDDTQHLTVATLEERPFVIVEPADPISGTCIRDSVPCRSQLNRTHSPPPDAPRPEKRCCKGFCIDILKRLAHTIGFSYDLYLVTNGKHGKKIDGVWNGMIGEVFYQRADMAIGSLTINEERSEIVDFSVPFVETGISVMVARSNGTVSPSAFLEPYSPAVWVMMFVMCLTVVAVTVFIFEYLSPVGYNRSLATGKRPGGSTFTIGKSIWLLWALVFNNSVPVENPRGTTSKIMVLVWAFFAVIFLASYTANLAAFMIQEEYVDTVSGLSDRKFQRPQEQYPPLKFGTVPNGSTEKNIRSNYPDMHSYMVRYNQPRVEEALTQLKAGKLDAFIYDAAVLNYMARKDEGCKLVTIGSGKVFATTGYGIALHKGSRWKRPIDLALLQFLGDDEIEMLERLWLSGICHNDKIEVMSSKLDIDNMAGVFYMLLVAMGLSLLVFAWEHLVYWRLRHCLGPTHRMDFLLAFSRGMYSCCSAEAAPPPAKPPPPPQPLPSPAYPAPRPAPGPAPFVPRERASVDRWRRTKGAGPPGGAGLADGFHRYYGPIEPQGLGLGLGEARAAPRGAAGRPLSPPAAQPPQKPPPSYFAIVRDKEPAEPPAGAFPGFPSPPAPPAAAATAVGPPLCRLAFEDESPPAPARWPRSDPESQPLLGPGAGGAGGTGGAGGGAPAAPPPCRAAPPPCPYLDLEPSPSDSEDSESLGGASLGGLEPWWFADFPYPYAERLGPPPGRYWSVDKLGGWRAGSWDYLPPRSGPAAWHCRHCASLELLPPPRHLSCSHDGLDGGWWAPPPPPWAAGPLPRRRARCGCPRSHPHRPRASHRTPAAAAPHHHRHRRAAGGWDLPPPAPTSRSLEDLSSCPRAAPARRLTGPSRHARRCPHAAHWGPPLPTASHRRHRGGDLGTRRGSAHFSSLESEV

This assay concerns the target T1, human GRIN1 (transcript variant NR1-3) and GRIN2D expressed in Xenopus oocytes (Homo sapiens, UniProt O15399).
T1 construct: GenScript (GRIN2D synthesis) SC115601; host or cells: Xenopus oocytes injected with cRNA (1 GluN1 : 2 GluN2)
The experiment in a line: NR2D oocyte potentiation assay (two-electrode voltage clamp). The assay is classed as cell-based. The following applies: 10 uM test compound; glutamate and glycine 10 μM each; holding potential −40 mV. An outline of the steps:
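Xenopus oocytes were defolliculated with collagenase, then injected with 50 nL of cRNA encoding human GluN1 (NR1-3 variant) and GluN2D mixed 1:2 and kept 72 h at 16° C. Two-electrode voltage clamp at −40 mV recorded currents; after 10 μM glutamate plus 10 μM glycine reached plateau, test compound was added until a new plateau formed.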
`CC(C)(C)c1ccc(-c2cc(=O)n3ccccc3n2)cc1` [Example 12, 2-(4-(tert-butyl)phenyl)-4H-pyrido[1,2-a]pyrimidin-4-one]: the activation at 10 µM fell in the range of 10 to 100%.
Regarding `COCOC[C@H]1CSc2nc(-c3cnc(C(C)(C)C)c(F)c3)c(C#N)c(=O)n2C1` [Example 171, (S)-8-(6-(tert-butyl)-5-fluoropyridin-3-yl)-3-((methoxymethoxy)methyl)-6-oxo-3,4-dihydro-2H,6H-pyrimido[2,1-b][1,3]thiazine-7-carbonitrile], the activation at 10 µM was over 1000%.
Then `C[C@H]1CSc2cc(-c3ccc(C4(C)CC4)nc3)c(C#N)c(=O)n2C1` [Example 117, (R)-3-methyl-8-(6-(1-methylcyclopropyl)pyridin-3-yl)-6-oxo-3,4-dihydro-2H,6H-pyrido[2,1-b][1,3]thiazine-7-carbonitrile], with over 1000%.
The value for `CC(C)C1CSc2nc(-c3ccc(C(C)(C)C)nc3)c(C#N)c(=O)n2C1` (centres unmarked) [Example 80, 8-(6-(tert-butyl)pyridin-3-yl)-3-isopropyl-6-oxo-3,4-dihydro-2H,6H-pyrimido[2,1-b][1,3]thiazine-7-carbonitrile] was 100 to 500%; that for `COC[C@@H]1CSc2nc(-c3cnc(C(C)(C)C)c(F)c3)c(C#N)c(=O)n2C1` [Example 167, (R)-8-(6-(tert-butyl)-5-fluoropyridin-3-yl)-3-(methoxymethyl)-6-oxo-3,4-dihydro-2H,6H-pyrimido[2,1-b][1,3]thiazine-7-carbonitrile] was over 1000%.
Then `CC(C)(C)c1ncc(-c2nc3n(c(=O)c2C#N)CCCS3)cc1O` [Example 127, 8-(6-(tert-butyl)-5-hydroxypyridin-3-yl)-6-oxo-3,4-dihydro-2H,6H-pyrimido[2,1-b][1,3]thiazine-7-carbonitrile], with over 1000%.
Turning to `CC1CSc2nc(-c3ccc(C(C)(CF)CF)nc3)c(C#N)c(=O)n2C1` (centres unmarked) [Example 155, 8-(6-(1,3-difluoro-2-methylpropan-2-yl)pyridin-3-yl)-3-methyl-6-oxo-3,4-dihydro-2H,6H-pyrimido[2,1-b][1,3]thiazine-7-carbonitrile], the activation at 10 µM lay within 100 to 500%.
On to `CN1CSc2nc(-c3cnc(C(C)(C)C)nc3)c(C#N)c(=O)n2C1` [Example 10, 8-(2-(tert-butyl)pyrimidin-5-yl)-3-methyl-6-oxo-3,4-dihydro-2H,6H-pyrimido[2,1-b][1,3,5]thiadiazine-7-carbonitrile], for which the activation at 10 µM was 10 to 100%.
Turning to `CC(C)(C)c1ncc(-c2nc3n(c(=O)c2C#N)CCS3)cn1` [Example 4, 7-(2-(tert-butyl)pyrimidin-5-yl)-5-oxo-2,3-dihydro-5H-thiazolo[3,2-a]pyrimidine-6-carbonitrile], the activation at 10 µM was in the range of 100 to 500%.
Then `CC(C)(C)c1ncc(-c2nc3n(c(=O)c2C#N)C[C@@H](CF)CS3)cn1` [Example 141, (S)-8-(2-(tert-butyl)pyrimidin-5-yl)-3-(fluoromethyl)-6-oxo-3,4-dihydro-2H,6H-pyrimido[2,1-b][1,3]thiazine-7-carbonitrile], with 500 to 1000%; and `CC(C)(C)c1ccc(-c2nc3n(c(=O)c2C#N)CC(CN)CS3)cn1` (centres unmarked) [Example 145, 3-(aminomethyl)-8-(6-(tert-butyl)pyridin-3-yl)-6-oxo-3,4-dihydro-2H,6H-pyrimido[2,1-b][1,3]thiazine-7-carbonitrile hydrochloride], with 10 to 100%.
With `CC(C)(C)c1ncc(-c2nc3n(c(=O)c2C#N)C[C@H](CO)CS3)cn1` [Example 138, (R)-8-(2-(tert-butyl)pyrimidin-5-yl)-3-(hydroxymethyl)-6-oxo-3,4-dihydro-2H,6H-pyrimido[2,1-b][1,3]thiazine-7-carbonitrile], the activation at 10 µM was over 1000%.
Then `CC(C)(C)c1ccc(-c2nc3n(c(=O)c2Br)CCCS3)cc1` [Example 28, 7-bromo-8-(4-(tert-butyl)phenyl)-3,4-dihydro-2H,6H-pyrimido[2,1-b][1,3]thiazin-6-one], with 100 to 500%; and `CC(C)(C)c1ccc(-c2nc3n(c(=O)c2C#N)CC(F)(F)CS3)cn1` [Example 24, 8-(6-(tert-butyl)pyridin-3-yl)-3,3-difluoro-6-oxo-3,4-dihydro-2H,6H-pyrimido[2,1-b][1,3]thiazine-7-carbonitrile], with 100 to 500%; and `COCSCC1COc2nc(-c3cnc(C(C)(C)C)c(F)c3)c(C#N)c(=O)n2C1` (centres unmarked) [Example 165, 8-(6-tert-butyl-5-fluoropyridin-3-yl)-3-{[(methoxymethyl)sulfanyl]methyl}-6-oxo-2H,3H, 4H,6H-pyrimido [2,1-b][1,3] oxazine-7-carbonitrile], with over 1000%.
For the molecule `CC(C)(C)c1ccc(-c2nc3n(c(=O)c2Br)CCCC3)cc1` [Example 13, 3-bromo-2-(4-(tert-butyl)phenyl)-6,7,8,9-tetrahydro-4H-pyrido[1,2-a]pyrimidin-4-one], the activation at 10 µM is under 10%.
The value for `CC(C)(C)c1ccc(-c2nc3ccccn3c(=O)c2C#N)cc1` [Example 18, 2-(4-(tert-butyl)phenyl)-4-oxo-4H-pyrido[1,2-a]pyrimidine-3-carbonitrile] was 100 to 500%; that for `CC1CSc2cc(-c3cnc(C4(C)CC4)c(F)c3)c(C#N)c(=O)n2C1` (centres unmarked) [Example 135, 8-(5-fluoro-6-(1-methylcyclopropyl)pyridin-3-yl)-3-methyl-6-oxo-3,4-dihydro-2H,6H-pyrido[2,1-b][1,3]thiazine-7-carbonitrile] was over 1000%; that for `Cc1csc2nc(-c3ccc(C(C)(C)C)nc3)c(C#N)c(=O)n12` [Example 35, 7-(6-(tert-butyl)pyridin-3-yl)-3-methyl-5-oxo-5H-thiazolo[3,2-a]pyrimidine-6-carbonitrile] was 100 to 500%.
Then `C[C@H]1CSc2cc(-c3cnc(C(C)(C)C)nc3)c(C#N)c(=O)n2C1` [Example 104, (R)-8-(2-(tert-butyl)pyrimidin-5-yl)-3-methyl-6-oxo-3,4-dihydro-2H,6H-pyrido[2,1-b][1,3]thiazine-7-carbonitrile], with over 1000%.
For `CSc1c(-c2ccc(C(C)(C)C)cc2)nc2n(c1=O)CCCC2` [Example 25, 2-(4-(tert-butyl)phenyl)-3-(methylthio)-6,7,8,9-tetrahydro-4H-pyrido[1,2-a]pyrimidin-4-one], the activation at 10 µM was under 10%.
The value for `C=C(C)c1ccc(-c2nc3n(c(=O)c2C#N)CCCS3)cn1` [Example 95, 6-oxo-8-(6-(prop-1-en-2-yl)pyridin-3-yl)-3,4-dihydro-2H,6H-pyrimido[2,1-b][1,3]thiazine-7-carbonitrile] was 100 to 500%.
Then `Cc1c(-c2ccc(C(C)(C)C)nc2)nc2n(c1=O)CCCS2` [Example 31, 8-(6-(tert-butyl)pyridin-3-yl)-7-methyl-3,4-dihydro-2H,6H-pyrimido[2,1-b][1,3]thiazin-6-one], with 10 to 100%; and `CC(CF)(CF)c1ccc(-c2nc3n(c(=O)c2C#N)CCCS3)cn1` [Example 156, 8-(6-(1,3-difluoro-2-methylpropan-2-yl)pyridin-3-yl)-6-oxo-3,4-dihydro-2H,6H-pyrimido[2,1-b][1,3]thiazine-7-carbonitrile], with 100 to 500%.
Then `C[C@H]1CSc2nc(-c3cnc(C(C)(C)C)c(O)c3)c(C#N)c(=O)n2C1` [Example 139, (R)-8-(6-(tert-butyl)-5-hydroxypyridin-3-yl)-3-methyl-6-oxo-3,4-dihydro-2H,6H-pyrimido[2,1-b][1,3]thiazine-7-carbonitrile], with over 1000%; and `C[C@H]1CSc2nc(-c3cnc(C(C)(C)C)c(F)c3)c(C#N)c(=O)n2C1` [Example 98, (R)-8-(6-(tert-butyl)-5-fluoropyridin-3-yl)-3-methyl-6-oxo-3,4-dihydro-2H,6H-pyrimido[2,1-b][1,3]thiazine-7-carbonitrile], with over 1000%.
As to `COC(=O)C1CSc2nc(-c3ccc(C(C)(C)C)nc3)c(C#N)c(=O)n2C1` (centres unmarked) [Example 86, methyl 8-(6-(tert-butyl)pyridin-3-yl)-7-cyano-6-oxo-3,4-dihydro-2H,6H-pyrimido[2,1-b][1,3]thiazine-3-carboxylate], the activation at 10 µM was in the range of 100 to 500%.
Then `CC1CSc2nc(-c3ccc(C4(C)COC4)nc3)c(C#N)c(=O)n2C1` (centres unmarked) [Example 153, 3-methyl-8-(6-(3-methyloxetan-3-yl)pyridin-3-yl)-6-oxo-3,4-dihydro-2H,6H-pyrimido[2,1-b][1,3]thiazine-7-carbonitrile], with 100 to 500%; and `CC(=O)NC[C@@H]1CSc2nc(-c3cnc(C(C)(C)C)c(F)c3)c(C#N)c(=O)n2C1` [Example 169, (S)-N-((8-(6-(tert-butyl)-5-fluoropyridin-3-yl)-7-cyano-6-oxo-3,4-dihydro-2H,6H-pyrimido[2,1-b][1,3]thiazin-3-yl)methyl)acetamide], with over 1000%; and `CN1CSc2nc(-c3ccc(C(C)(C)C)cc3)c(C#N)c(=O)n2C1` [Example 6, 8-(4-(tert-butyl)phenyl)-3-methyl-6-oxo-3,4-dihydro-2H,6H-pyrimido[2,1-b][1,3,5]thiadiazine-7-carbonitrile], with 10 to 100%.
The value for `C[C@@H]1CSc2nc(-c3cnc(C(C)(C)C)c(F)c3)c(C#N)c(=O)n2C1` [Example 99, (S)-8-(6-(tert-butyl)-5-fluoropyridin-3-yl)-3-methyl-6-oxo-3,4-dihydro-2H,6H-pyrimido[2,1-b][1,3]thiazine-7-carbonitrile] was over 1000%.
On to `CC1CSc2nc(-c3ccc(C4(C(F)(F)F)CC4)cc3)c(C#N)c(=O)n2C1` (centres unmarked) [Example 46, 3-methyl-6-oxo-8-(4-(1-(trifluoromethyl)cyclopropyl)phenyl)-3,4-dihydro-2H,6H-pyrimido[2,1-b][1,3]thiazine-7-carbonitrile], for which the activation at 10 µM was 100 to 500%.

The values above are taken from US11807650B2, “NMDA receptor modulators and uses thereof” (Novartis AG, priority 2016, dated 2023).
